The source of these data is PMC12476087, “Loading of Dicarboxylatoplatinum(II)‐NHC Complexes in Bacterial Ghosts as an Advanced Development in Cancer Therapy” (Archiv Der Pharmazie, 2025).

The test system of series [1] is A2780wt cells. Nature of the series: ATP luminescence assay, A2780wt. It is filed as cell-based. Particulars: w/o BGs, 25 µM, 24 h. The text has this: As a second potential mode of cell death, ICD has been investigated. Thus, two hallmarks of ICD, namely release of adenosine triphosphate (ATP) and calreticulin translocation to the plasma membrane have been analyzed in detail. Given that some platinum complexes, including the clinically used drug oxaliplatin [27], as well as BGs, are known inducers of ICD, we investigated the potential of BGs loaded with platinum(II)‐NHC complexes to trigger this process. […] Untreated cells (without compound and without BGs) were tested as negative controls.
The ATP assay was performed by employing the commercially available ATPlite Luminescence Assay System 96‐well (revvity, Massachusetts, USA). In brief, A2780wt and A2780cis cells, respectively, were seeded at a density of 8 × 10^3 cells per well into an opaque‐walled 96‐well plate with solid bottoms. […] After incubation, 50 µL of the provided mammalian cell lysis solution was added and incubated for further 5 min on an orbital shaker at 700 rpm. Then, 50 µL of a provided substrate solution was added and again incubated for 5 min on an orbital shaker at 700 rpm. The plate was allowed to dark adapt for 10 min and then the luminescence was measured. Analysis was performed on the BioTek Synergy H1.

For series [2], the system named is A2780wt cells. The series can be described thus: Annexin V/PI staining and FACS analysis, A2780wt. It is filed as cell-based. Particulars: w/o BGs, 25 µM, 24 h; for late apoptosis/ necrosis: Annexin V positive/PI positive; for early apoptosis: percentage of cells (Annexin V positive/PI negative). As to the method:
Therefore, we aimed to evaluate the apoptosis and necrosis inducing potential of complexes 1–4 via a fluorescent‐activated cell sorting (FACS) analysis with Annexin V/propidium iodide (PI) staining in A2780wt and A2780cis cells. Cells were treated for 24 h with both the free and BG‐loaded forms of each compound at 25 µM. Carboplatin (50 µM) served as a reference.
To evaluate the mode of cell death, a FACS measurement after staining with Annexin V and PI was conducted. First, 0.3 × 10^6 A2780wt or A2780cis cells were seeded into 12‐well plates and were allowed to adhere for 24 h. The compounds were added at 25 µM, either diluted from a freshly prepared DMF stock solution (0.1% DMF) or freshly thawed when loaded in BGs. After 24 h of incubation, the cells were harvested with accutase and washed with PBS. The cells were then resuspended in 200 µL of PBS each and 1 µL of PI solution (Sigma‐Aldrich, Taufkirchen, Germany) and 1 µL of Annexin V‐FITC (MabTag GmbH, Friesoythe, Germany) were added to each sample. These were then incubated for 20 min at rt under light‐protected conditions and afterward transferred onto ice. The percentage of apoptotic cells was determined by analyzing Annexin V positive /PI negative cells using a BD LSRFortessa flow cytometer and BD FACSDiva software (both BD Biosciences, San Jose, CA, USA). The apoptosis analysis included the evaluation of early apoptosis (Annexin V positive/PI negative) and late apoptosis/necrosis (Annexin V positive /PI positive).

A short description of series [3]: Stability in aqueous solution (RP‐HPLC‐MS). It counts as physicochemical. Particulars: 0.5 mM in water, rt; m/z 446.1 (1, 20 h), m/z 602.2 (2). As to the method: Samples were analyzed by HPLC‐MS immediately after preparation and at selected time points during 24 h of incubation at rt. […] As stationary phase, a Gemini C18 110 Å; 150 × 4.6 mm; 3.0 µm particles (Phenomenex Ltd.; Aschaffenburg, Germany) column was employed and equipped with a 4 × 3 mm guard column of the identical material. […] The oven temperature was maintained at 30°C and the MS analysis was performed with split flow 1:5 of the eluate in positive ionization mode (capillary voltage 4.5 kV; source temperature 320°C; dry gas 10 L/min; nebulizer gas pressure 30 psi, scan range m/z 50–1500). The injection volume of the sample solution (V sample) was set to 10 µL. Sample degradation was evaluated by integration of the extracted ion chromatograms at the indicated m/z ± 0.5 (based on the monoisotopic peaks).

Series [4] is described as follows: Stability in RPMI 1640 cell culture medium (HPLC‐MS). It counts as physicochemical. The settings on record: RPMI 1640 without FCS, 1 h incubation, extracted ion chromatograms. Here is the method: Additional stability studies in aqueous media and RPMI 1640 (without FCS) were carried out using RP‐HPLC‐MS. For this purpose, 0.5 mM solutions of complexes 1 and 2 were prepared in Milli‐Q water and RPMI 1640. Samples were analyzed by HPLC‐MS immediately after preparation and at selected time points during 24 h of incubation at rt. HPLC‐MS measurements were performed on Agilent 1260 system hyphenated to an MS Single Quad detector from Agilent with ESI (LC‐MSD from Agilent Technologies, Santa Clara, CA, USA). As stationary phase, a Gemini C18 110 Å; 150 × 4.6 mm; 3.0 µm particles (Phenomenex Ltd.; Aschaffenburg, Germany) column was employed and equipped with a 4 × 3 mm guard column of the identical material. The mobile phase flow was set to 0.8 mL/min; and consisted of a mixture of water (solvent A) – MeOH (solvent B) using gradient elution (0 min 5% B; 3 min 5% B; 17 min 98% B; 20 min stop; post time 10 min). The oven temperature was maintained at 30°C and the MS analysis was performed with split flow 1:5 of the eluate in positive ionization mode (capillary voltage 4.5 kV; source temperature 320°C; dry gas 10 L/min; nebulizer gas pressure 30 psi, scan range m/z 50–1500). The injection volume of the sample solution (V sample) was set to 10 µL. Sample degradation was evaluated by integration of the extracted ion chromatograms at the indicated m/z ± 0.5 (based on the monoisotopic peaks).

Series [5] can be described thus: Stability in D2O (1H NMR). It counts as physicochemical. Particulars: for behaviour in D2O (aquation): rt, up to 24 h. As to the method:
Stability of the complexes 1–4 in CDCl3, CD3OD, CD3CN, DMF‐d7, and D2O was monitored by ^1H NMR spectroscopy at ambient temperature. Solutions of the complexes (approximately 3 mg/mL) were prepared in each solvent, and ¹H NMR spectra were recorded periodically over 24 h.

As for “(SP‐4‐2)‐Bis(dichloroacetato)bis(1,3‐diethylbenzimidazol‐2‐ylidene)platinum(II) [Compound 4]”, in series [1], the ATP concentration was found to be 0.32 ± 0.13 µM. In series [2], this compound displayed a late apoptosis/ necrosis of 46.9 ± 3.01 and an early apoptosis of 13.2 ± 0.22.
The matching figures for `CCN1[C]([Pt]([O]C(=O)C(Cl)Cl)([O]C(=O)C(Cl)Cl)[SH](C)(C)=O)N(CC)c2ccccc21` [Compound 3, (SP‐4‐2)‐Bis(dichloroacetato)(1,3‐diethylbenzimidazol‐2‐ylidene)(dimethylsulfoxide)platinum(II)]: 0.15 ± 0.08 µM, 28.8 ± 2.50 and 15.3 ± 1.17.
`CCN1[C]([Pt]([O]C(C)=O)([O]C(C)=O)[SH](C)(C)=O)N(CC)c2ccccc21` [Compound 1, (SP‐4‐2)‐Diacetato(1,3‐diethylbenzimidazol‐2‐ylidene)(dimethylsulfoxide)platinum(II)]: the ATP concentration in series [1] was determined as 0.20 ± 0.04 µM. Moreover, in series [3], the “change of HPLC‐MS signal intensity in aqueous solution” value was “No significant decrease in the intensity of this signal”. Besides, the “concentration remaining in RPMI 1640” value in series [4] is listed as “approximately 37%”. For the same compound, the “behaviour in D2O (aquation)” value in series [5] is listed as “No significant spectral changes were observed during incubation for 24 h at rt”. Besides, the “complex that had released its acetates” value in series [5] (within 5 min of dissolution) is “over 70%”. In series [2], this compound showed a late apoptosis/ necrosis of 29.1 ± 2.56 and an early apoptosis of 15.9 ± 1.55.
Take “(SP‐4‐2)‐Diacetatobis(1,3‐diethylbenzimidazol‐2‐ylidene)platinum(II) [Compound 2]”: the ATP concentration in series [1] is 0.32 ± 0.03 µM. Besides, the “change of HPLC‐MS signal intensity in aqueous solution” value in series [3] was “progressively decreased over time”. The “concentration remaining in RPMI 1640” value in series [4] is reported as approximately 7%. The “behaviour in D2O (aquation)” value in series [5] is reported as “fast initial aquation”. In addition, in series [2], the late apoptosis/ necrosis is reported as 25.9 ± 5.70 and the early apoptosis was determined as 9.37 ± 0.31.
